Experimental data taken from PMC9050161 (RSC Advances, 2020).

Columns and labels:
[1] = Chemical inhibition assay, glucuronidation of PI-103 in pooled HLM; format: in vitro ADME, human
[2] = Chemical inhibition assay, phase I metabolism of PI-103 in pooled HLM; format: in vitro ADME, human; conditions: inhibitor 0.1 μM (CYP1A2 inhibitor)

SMILES | activity of PI-103 glucuronidation in HLM ([1]; inhibitor 10 μM) | also measured
C[C@H](CCC(=O)O)[C@H]1CC[C@H]2[C@@H]3[C@H](O)C[C@@H]4C[C@H](O)CC[C@]4(C)[C@H]3CC[C@]12C [CDCA] | – | activity of PI-103 glucuronidation in HLM ([1]; inhibitor 20 μM): no changes
CN(C)CCC=C1c2ccccc2CCc2ccccc21 [amitriptyline] | no changes | –
C[C@]12CC[C@@H](O)C[C@@H]1CC[C@@H]1[C@@H]2CC[C@]2(C)C(=O)CC[C@@H]12 [androsterone] | 69.36 % of the control values | –
Cc1cn(-c2cc(NC(=O)c3ccc(C)c(Nc4nccc(-c5cccnc5)n4)c3)cc(C(F)(F)F)c2)cn1 [nilotinib] | 82.37 % of the control values | –
O=c1cc(-c2ccccc2)oc2c1ccc1ccccc12 [α-naphthoflavone] | – | remaining activity of PI-103 phase I metabolism in HLM [2]: 53.37 % of the control values
